The results in this text go back to ChEMBL document CHEMBL1201862, “PubChem BioAssay data set” (2004).

Some test systems named below: ACHN; COLO 205; HCT-15; K562; NCI-H226; NCI-H23; NCI-H460; OVCAR-8; RPMI-8226; SF-295; SK-MEL-28; SK-MEL-2; SK-OV-3; SR; UACC-257; UO-31; SW-620; MCF7; DU-145.
What all share (assay): NCI tumour cell line growth inhibition, 48 h

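In this assay, cells in 96-well plates receive the compound at five concentrations for 48 hours. Endpoints are linearly interpolated between the surrounding concentrations. Here, GI50 denotes the concentration required for 50% inhibition of growth.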 Activity calls are given as the source filed them. Cut-off read from the data, not from the text of the source: active = GI50 up to about 1.1 µM and inactive = higher. Where a SMILES comes first, the peptide text is derived from it. [ ]: non-standard residue; d: D form. The star is where a group is joined. Bn2Val = CC(C)[C@@H](C(=O)*)N(Cc1ccccc1)Cc1ccccc1; NHPiperonyl = c1cc2c(cc1CN*)OCO2; NMeV = CN[C@H](C(=O)O)C(C)C; dNMeA = CN[C@H](C)C(=O)O Some results are limits rather than exact numbers.

Turning to `COc1cc(Cl)cc(O)c(=O)c1OC`, the GI50 in the assay with ACHN is 37.2 µM (inactive); with COLO 205, 28.7 µM (inactive); in the assay with HCT-15, 25.4 µM; in the assay on K562, 36.5 µM (inactive); in the assay on NCI-H226, 25.2 µM (inactive); in the assay on NCI-H23, 35.1 µM (inactive). The GI50 in the assay with NCI-H460 is 24.3 µM (inactive); in the assay with OVCAR-8 it was 36.9 µM (inactive); with RPMI-8226, 15.8 µM (inactive); in the assay with SF-295, 62.4 µM (inactive); in the assay on SK-MEL-28 it was 92.7 µM (inactive); in the assay with SK-MEL-2, 53.2 µM (inactive). For the same compound, the GI50 in the assay on SK-OV-3 is > 62.5 µM (inactive); in the assay on SR, 2.2 µM (inactive); in the assay on UACC-257 it was 48.8 µM (inactive); in the assay with UO-31 it was 42.4 µM (inactive).

Turning to `COC(=O)C1CC(c2ccc(Cl)cc2)=NO1` (stereo not given), the GI50 was > 100 µM (inactive) in the assay on ACHN; > 100 µM (inactive) with COLO 205; over 100 µM in the assay with HCT-15; > 100 µM (inactive) with K562; > 100 µM (inactive) in the assay on NCI-H226; > 100 µM (inactive) in the assay with NCI-H23. Also, the GI50 in the assay on NCI-H460, in the assay on OVCAR-8, with RPMI-8226, with SF-295, with SK-MEL-28 and in the assay on SK-MEL-2 was > 100 µM (inactive) throughout. The GI50 in the assay on SK-OV-3, in the assay with SR, in the assay with SW-620, in the assay on UACC-257 and in the assay on UO-31 was > 100 µM (inactive) each time.

For `Cc1ccc(NCC(=O)N2CC(=O)Nc3ccccc32)cc1`, the GI50 with ACHN is > 100 µM (inactive); in the assay with COLO 205, > 100 µM (inactive); in the assay on HCT-15 it was over 100 µM; with K562 it was > 100 µM (inactive); with NCI-H226, > 100 µM (inactive); in the assay with NCI-H23, > 100 µM (inactive). For the same compound, the GI50 in the assay with NCI-H460, in the assay with OVCAR-8, in the assay with RPMI-8226, in the assay with SF-295, in the assay with SK-MEL-28 and in the assay on SK-MEL-2 was > 100 µM (inactive) in each case. For the same compound, the GI50 in the assay with SK-OV-3, in the assay with SR, in the assay on SW-620, in the assay with UACC-257 and in the assay with UO-31 was > 100 µM (inactive) in each case.

`CC12CCC(C(=O)O1)C(C)(C)O2` (stereo not given): the GI50 is > 100 µM (inactive) in the assay with ACHN; over 100 µM in the assay with HCT-15; > 100 µM (inactive) in the assay with K562; > 100 µM (inactive) in the assay on MCF7; > 100 µM (inactive) in the assay with NCI-H226; > 100 µM (inactive) with NCI-H23. Further, the GI50 in the assay on NCI-H460, in the assay with OVCAR-8, in the assay on RPMI-8226, with SF-295, in the assay on SK-MEL-28 and in the assay on SK-MEL-2 was > 100 µM (inactive) each time. For the same compound, the GI50 in the assay on SK-OV-3, in the assay on SR, with SW-620, in the assay with UACC-257 and in the assay with UO-31 was > 100 µM (inactive) each time.

`O=C1C2c3[nH]c4ccccc4c3C3CCCCCC3C2C(=O)N1c1ccccc1` (stereo not given): the GI50 in the assay on ACHN is 39.6 µM (inactive); in the assay on COLO 205 it was > 25.8 µM (inactive); with HCT-15, over 47 µM; in the assay on K562 it was > 55 µM (inactive); in the assay with NCI-H226, 21.3 µM (inactive); with NCI-H23, > 49.8 µM (inactive). Also, the GI50 with NCI-H460 is 11.3 µM (inactive); in the assay on OVCAR-8, 11.8 µM (inactive); with RPMI-8226 it was > 100 µM (inactive); in the assay with SF-295, 11 µM (inactive); with SK-MEL-28, > 59.8 µM (inactive); in the assay on SK-MEL-2, 22.9 µM (inactive). In addition, the GI50 in the assay with SK-OV-3 is 15.9 µM (inactive); in the assay with SR it was > 33.3 µM (inactive); in the assay on SW-620, 24.8 µM (inactive); with UACC-257 it was 30.7 µM (inactive); in the assay on UO-31, 38.2 µM (inactive).

For the compound `CCCNCC(=O)O[C@]1(CC)C(=O)OCc2c1cc1n(c2=O)Cc2cc3ccccc3nc2-1`, the GI50 with ACHN was < 0.01 µM (active); in the assay with COLO 205, 0.908 µM (active); with K562, 0.181 µM (active); in the assay on NCI-H226, 0.0121 µM (active); in the assay on NCI-H23, 0.0149 µM (active); in the assay on NCI-H460, < 0.01 µM (active). Moreover, the GI50 is 0.161 µM (active) with OVCAR-8; 0.0498 µM (active) in the assay on RPMI-8226; < 0.01 µM (active) in the assay with SF-295; 2.31 µM (inactive) in the assay on SK-MEL-28; 1.13 µM (inactive) in the assay with SK-MEL-2; 0.0679 µM (active) in the assay on SK-OV-3. In addition, the GI50 is < 0.01 µM (active) in the assay on SR, 0.163 µM (active) with UACC-257 and 0.0637 µM (active) with UO-31.

As to `CSC(=S)N(C)c1nc(N(C)C)s[s+]1`, the GI50 in the assay with ACHN was > 100 µM (inactive); with HCT-15 it was over 100 µM; in the assay with K562, > 100 µM (inactive); with NCI-H226, > 100 µM (inactive); in the assay on NCI-H23, > 100 µM (inactive); in the assay with NCI-H460 it was > 100 µM (inactive). The GI50 was > 100 µM (inactive) in the assay on OVCAR-8; 19.9 µM (inactive) in the assay on RPMI-8226; > 100 µM (inactive) with SF-295; > 100 µM (inactive) in the assay on SK-MEL-28; > 100 µM (inactive) in the assay with SK-MEL-2; > 100 µM (inactive) in the assay on SK-OV-3. Besides, the GI50 in the assay with SR, with SW-620, in the assay on UACC-257 and in the assay on UO-31 was > 100 µM (inactive) throughout.

Take `O=C(O)CSc1nnc(/C=C/c2ccccc2)[nH]1`: the GI50 in the assay with ACHN is > 100 µM (inactive); in the assay with COLO 205, > 100 µM (inactive); in the assay on HCT-15, over 100 µM; in the assay on K562 it was > 100 µM (inactive); in the assay with NCI-H226, > 100 µM (inactive); in the assay with NCI-H23, > 100 µM (inactive). The GI50 in the assay with NCI-H460, in the assay with OVCAR-8, in the assay with RPMI-8226, with SF-295, in the assay on SK-MEL-28 and in the assay with SK-MEL-2 was > 100 µM (inactive) in each case. The GI50 in the assay with SK-OV-3 is > 100 µM (inactive); with SR, > 100 µM (inactive); in the assay on SW-620, > 57.5 µM (inactive); in the assay with UACC-257, > 100 µM (inactive); with UO-31, > 100 µM (inactive).

As to `CCCCCCCCCCCC[N+]12CC[N+](CCN)(CC1)CC2`, the GI50 was > 100 µM (inactive) with ACHN; 39.3 µM (inactive) with COLO 205; 32.1 µM (inactive) in the assay on K562; 63.7 µM (inactive) in the assay on NCI-H226; 51.6 µM (inactive) with NCI-H23; 29.2 µM (inactive) in the assay with NCI-H460. For the same compound, the GI50 in the assay with OVCAR-8 was > 100 µM (inactive); in the assay on RPMI-8226, 28.2 µM (inactive); in the assay on SF-295 it was 51.8 µM (inactive); in the assay with SK-MEL-28, > 100 µM (inactive); in the assay with SK-MEL-2, > 100 µM (inactive); with SK-OV-3, > 100 µM (inactive). Besides, the GI50 in the assay on SR is 26.9 µM (inactive); with SW-620 it was > 100 µM (inactive); in the assay with UACC-257, > 100 µM (inactive); in the assay on UO-31 it was > 100 µM (inactive).

Regarding `CN1CCC(c2c(O)cc(O)c3c(=O)cc(-c4ccccc4Cl)oc23)C(O)C1` (stereo not given), the GI50 with ACHN was 0.048 µM (active); in the assay with COLO 205 it was 0.0811 µM (active); in the assay with HCT-15, 0.057 µM; in the assay on K562, 0.259 µM (active); with NCI-H226, 0.0336 µM (active); with NCI-H23, 0.0557 µM (active). The GI50 in the assay on NCI-H460 is 0.0592 µM (active); in the assay on OVCAR-8, 0.0352 µM (active); with RPMI-8226 it was < 0.01 µM (active); in the assay on SF-295, < 0.0253 µM (active); in the assay on SK-MEL-28 it was 0.0735 µM (active); in the assay with SK-MEL-2, 0.0323 µM (active). Moreover, the GI50 was 0.571 µM (active) with SK-OV-3; 0.0247 µM (active) in the assay with SR; 0.0339 µM (active) in the assay with SW-620; 0.0627 µM (active) in the assay with UACC-257; 0.0303 µM (active) in the assay on UO-31.

Take `CCOc1ccc(/C=C/c2cc(OC)c(OC)c(OC)c2)cc1`: the GI50 was 1.56 µM (inactive) in the assay on ACHN; 0.635 µM (active) in the assay with COLO 205; 0.869 µM in the assay with HCT-15; 0.458 µM (active) in the assay on K562; 2.45 µM (inactive) with NCI-H226; 2.92 µM (inactive) in the assay with NCI-H23. Also, the GI50 in the assay on NCI-H460 is 1.05 µM (active); in the assay with OVCAR-8 it was 3.9 µM (inactive); in the assay on RPMI-8226, 0.601 µM (active); in the assay on SF-295, 0.346 µM (active); with SK-MEL-28, 0.83 µM (active); in the assay with SK-MEL-2 it was 1.23 µM (inactive). The GI50 in the assay with SK-OV-3 is 1.4 µM (inactive); with SR, 2.46 µM (inactive); with SW-620 it was 0.791 µM (active); in the assay with UACC-257 it was 0.658 µM (active); in the assay on UO-31, 17.1 µM (inactive).

Turning to `CC(C)[C@H](NC(=O)[C@H](C(C)C)N(Cc1ccccc1)Cc1ccccc1)C(=O)N(C)[C@H](C(=O)N1CCC[C@H]1C(=O)N(C)[C@H](C)C(=O)NCc1ccc2c(c1)OCO2)C(C)C` (Bn2Val-V[NMeV]P[dNMeA]-NHPiperonyl), the GI50 is 8.11 µM (inactive) in the assay with ACHN; 2.15 µM (inactive) in the assay with COLO 205; 11.6 µM (inactive) with DU-145; 3.54 µM in the assay with HCT-15; 2.59 µM (inactive) in the assay on K562; 2.25 µM (inactive) with MCF7. Also, the GI50 was 16.8 µM (inactive) in the assay with NCI-H226; 16.8 µM (inactive) with NCI-H23; 3.93 µM (inactive) with NCI-H460; 8.61 µM (inactive) in the assay with OVCAR-8; 1.99 µM (inactive) with RPMI-8226; 4.94 µM (inactive) with SF-295. For the same compound, the GI50 in the assay with SK-MEL-28 was 22.4 µM (inactive); in the assay with SK-MEL-2, 5.97 µM (inactive); in the assay with SK-OV-3, 41.6 µM (inactive); in the assay with SW-620, 4.49 µM (inactive); in the assay on UACC-257, 5.56 µM (inactive); with UO-31, 21.6 µM (inactive).
